According to publication PMC3914206:

What was measured:
[1] = target: T1, panel of 442 kinases (Homo sapiens, UniProt P36896); type: binding; settings: Compound Concentration 10 µM
T1 construct: purchased KINOMEscan
T1 sequence (P36896 24-505): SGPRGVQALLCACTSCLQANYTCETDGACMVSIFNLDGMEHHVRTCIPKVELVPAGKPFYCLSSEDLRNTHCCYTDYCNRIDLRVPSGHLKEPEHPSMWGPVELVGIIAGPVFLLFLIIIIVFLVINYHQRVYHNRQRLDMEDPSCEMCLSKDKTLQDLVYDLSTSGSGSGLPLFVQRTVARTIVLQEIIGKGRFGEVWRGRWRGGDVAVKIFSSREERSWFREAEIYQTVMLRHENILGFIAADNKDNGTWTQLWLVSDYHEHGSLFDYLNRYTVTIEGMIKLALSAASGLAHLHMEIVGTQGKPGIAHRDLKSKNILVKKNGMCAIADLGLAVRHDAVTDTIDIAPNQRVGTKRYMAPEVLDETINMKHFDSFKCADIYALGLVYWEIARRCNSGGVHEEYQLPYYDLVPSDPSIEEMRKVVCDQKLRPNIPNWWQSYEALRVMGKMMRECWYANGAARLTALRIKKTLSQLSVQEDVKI
Source text: (§1) We assessed the selectivity of members of this scaffold using the KINOMEscan methodology across a near comprehensive panel of 442 kinases [[18,27]].

[2] = target: T2, panel of 442 kinases (Homo sapiens, UniProt P53667); type: binding; settings: Compound Concentration 10 µM
T2 construct: purchased KINOMEscan
Source text: as §1

T2 sequence (P53667 whole entry): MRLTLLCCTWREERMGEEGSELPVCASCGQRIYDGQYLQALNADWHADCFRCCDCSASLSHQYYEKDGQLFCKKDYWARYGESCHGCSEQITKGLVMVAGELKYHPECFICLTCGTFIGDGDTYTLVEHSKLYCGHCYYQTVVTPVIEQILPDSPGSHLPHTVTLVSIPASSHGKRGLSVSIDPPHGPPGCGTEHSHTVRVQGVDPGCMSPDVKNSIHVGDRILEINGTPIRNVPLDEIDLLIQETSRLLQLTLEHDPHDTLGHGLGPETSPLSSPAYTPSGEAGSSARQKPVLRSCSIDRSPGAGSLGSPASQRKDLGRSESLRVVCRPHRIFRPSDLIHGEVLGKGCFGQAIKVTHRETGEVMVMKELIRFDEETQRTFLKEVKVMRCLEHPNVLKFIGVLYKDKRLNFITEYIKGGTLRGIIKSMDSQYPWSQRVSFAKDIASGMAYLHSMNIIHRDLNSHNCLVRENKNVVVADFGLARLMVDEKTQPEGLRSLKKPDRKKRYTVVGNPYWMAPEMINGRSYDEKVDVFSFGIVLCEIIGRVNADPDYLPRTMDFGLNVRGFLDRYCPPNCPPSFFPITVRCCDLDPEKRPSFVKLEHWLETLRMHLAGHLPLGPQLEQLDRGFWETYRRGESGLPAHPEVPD

Structure (SMILES)	KINOMEscan: ACVR1B [1]	KINOMEscan: LIMK1 [2]
COc1cc(C(=O)N2CCC(N3CCN(C)CC3)CC2)ccc1Nc1ncc2c(n1)N(C)c1ccccc1C(=O)N2C [15 (LRRK2-IN-1)]	100	95
COc1cc(C(=O)N2CCC(N3CCN(C)CC3)CC2)ccc1Nc1ncc2c(n1)N(C1CCCC1)c1ccccc1C(=O)N2C [Compound 25, 11-cyclopentyl-2-((2-methoxy-4-(4-(4-methylpiperazin-1-yl)piperidine-1-carbonyl)phenyl)amino)-5-methyl-5H-benzo[e]pyrimido[5,4-b][1,4]diazepin-6(11H)-one]	97	93
CCOc1cc(C(=O)N2CCC(N3CCN(C)CC3)CC2)ccc1Nc1ncc2c(n1)N(C1CCCC1)c1ccccc1C(=O)N2C [Compound 26]	100	100
